Where two headings read alike, the source gives them in different places.
Columns and labels:
IMR-32 = assay: Peptide binding and internalization assay; design: species or system human
Protocol: (§1) Cell lines were obtained from the ATCC (IMR-32 and SKNSH) or from Ohio State University (Columbus, Ohio) (SK-R2). All cells lines were maintained in 5% CO2 at 37°C in media defined by the suppliers of the cell lines.
(§2) Cells were harvested, counted with a hemocytometer, and resuspended in binding buffer (Minimum Essential Medium (MEM), 10 mM Hepes, 0.01% BSA). A standard assay used 500,000 cells in 1 ml of binding buffer. Radioactive ligand alone (500,000 cpm), or in combination with at least 1,000-fold molar excess (10^-6 M) non-radioactive compound (to calculate specific binding), was added to a final volume of 1 ml. At the termination of the experiment, the incubation medium was removed, the cells were rinsed twice with Hanks balanced salt solution (HBSS), and the radioactivity in the cells determined using a gamma counter. This level of radioactivity represents total binding, which includes both membrane-bound and internalized fractions. Specific binding was determined by calculating the difference in the levels of measured radioactivity without the unlabeled competitor minus the radioactivity with the unlabeled competitor.
(§3) To differentiate between membrane and intracellular binding, cells were subsequently incubated for 10 min at 4°C with acidified HBSS (pH=4-5), rinsed in HBSS, and the radioactivity again determined using the gamma counter. Since the acid wash preferentially released the radioactive ligand from the external surface of the cell, remaining radioactivity was attributed to internalized fractions. Membrane-associated binding was then calculated as the difference between the total binding and internalized fractions.
The times for ligand binding and internalization were analyzed using the standard assay methods described above. […] The first series of experiments used IMR-32 cells that were exposed to a radioligand for varying periods of time (up to 72 hr). The incubation media was replaced at least every 48 hr.
(§4) The assay methods were as described in Example 2.

SK-R2 = assay: Peptide binding and internalization assay; design: species or system human
Protocol: as §1, §2, §3, §4

SKNSH = assay: Peptide binding and internalization assay; design: species or system human
From the text: The cells included: (1) IMR-32 (ATCC No. CCL-127), a human neuroblastoma cell line with a very high expression level of somatostatin receptors (SST), predominantly SST-2; (2) SKNSH (ATCC No. HTB-11), a human neuroblastoma bone marrow metastatic cell that lacks somatostatin receptors as defined by either a binding assay or reverse transcriptase-polymerase chain reaction (RTPCR); and (3) SK-R2, a SKNSH-derived cell line transfected with the gene for the SST-2 receptor. The IMR-32 and the SK-R2 cells express somatostatin receptors type 2 (SST-2). […] Cell lines were obtained from the ATCC (IMR-32 and SKNSH) or from Ohio State University (Columbus, Ohio) (SK-R2). All cells lines were maintained in 5% CO2 at 37°C in media defined by the suppliers of the cell lines.
as §2, §3, §4

[1] = tested on: neuroendocrine cancers expressing the somatostatin receptor; assay: Pilot clinical trial of monthly 180 mCi doses; assay type: in vivo, human; settings: ten patients
Protocol: For six months, pilot clinical trials were conducted in ten human patients with progressive metastatic indolent and symptomatic neuroendocrine cancers expressing the somatostatin receptor. […] The first monthly dose was a bolus injection of 180 mCi. The second monthly dose was infusion of 180 mCi over 72 hr. The third monthly dose was infusion of 180 mCi over 24 hr. Thereafter, all monthly doses were infusion of 180 mCi over 24 hr. Clinical benefits (as evidenced by reduced pain, weight gain, reduced malaise, etc.) occurred in 6 of the 10 neuroendocrine (carcinoid/islet cell) patients. Partial radiographic responses (greater than 50% reduction in the product of perpendicular tumor diameters) occurred in 2 patients, and significant tumor necrosis developed in 7 of the 10 neuroendocrine patients. Treatment-related toxicity included 2 Grade III platelet, 1 Grade II WBC, 1 Grade I WBC and 2 Grade I Hb on the NCI (National Cancer Institute) grading scale.

[2] = tested on: human angiogenic vascular tissue; assay: Human Placental Vein Angiogenesis Model; assay type: cell-based; settings: 50 µCi/mL (or equivalent amounts), 14 days
From the text: Watson et al., "Up-Regulation of Somatostatin Receptor Subtype 2 (SST-2) mRNA Occurs During the Transformation of Human Endothelium to the Angiogenic Phenotype," Paper Presented at the 12th International Symposium on Regulatory Peptides, Copenhagen, Denmark, September 1996; J.C. Watson et al., "SST-2 Gene Expression Appears During Human Angiogenesis," Regulatory Peptides, vol. 64, p. 206 (Abstract) (1996); and J.C. Watson et al., "Breast Cancer Increases Initiation of Angiogenesis Without Accelerating Neovessel Growth Rate," Surgery, vol. 122, pp. 508-14 (1997). Human placental veins were cut into discs of 2 mm diameter and were incorporated into a 0.3% fibrinogen gel. This gel was then overlaid with tissue culture media containing 10-20 % fetal calf serum (FCS). Under normal conditions, endothelial cords will begin to sprout from the transected cut edge of the vein discs within six days.
These vein discs were placed into wells of three separate culture plates. One culture plate, the control sample, was allowed to grow without treatment. […] The discs were then incubated for fourteen days. […]
Using a digital image analyzer, the mean area of the sprouting tissue surrounding the discs was measured.
To measure the growth rate of angiogenic vascular tissue, every two days during the 14-day incubation period, the length of sprouts were measured. […]

[3] = tested on: tumor in the left side of the neck
Protocol: During and after each administration of the last eight doses, a tumor in the left side of the neck was monitored for radioligand uptake with an ion chamber survey meter, a Victoreen 450P ion chamber, which measures external gamma dose rates. Administration of the initial seven doses were by bolus injection. The last three doses were delivered by infusion with various activities of radioligand.
The external gamma dose rates from radioligand accumulation in the neck tumor area were measured immediately and 24 hr after injection.
Four months after the final bolus dose, the first dose by infusion ("Infusion 1") was administered. A dose equivalent to the previous bolus dose (175.9 mCi) was given, but the radioligand was administered by infusion over 72 hr at a constant rate of 2.5 mCi/hr.
One month later, in "Infusion 2," the total dose was increased to 389.2 mCi. By infusion, 189.8 mCi of the radioligand was given over the first 24 hr, 108.6 mCi over the second 24 hr, and 90.8 mCi over the third 24 hr. For each 24 hr period, the infusion rate was kept constant.
One month later, a third dose was administered by infusion ("Infusion 3"). A dose of 301 mCi was infused the first 24 hr period. In two subsequent 24 hr periods, 25 and 21 mCi were infused.

[4] = IMR-32, competitor octreotide acetate
[5] = IMR-32 cells exposed to radioligand up to 72 hr
[6] = SKR-2, competitor octreotide acetate
[7] = NCI grading scale, monthly 180 mCi doses

## (^111In-DTPA-D-Phe^1)-octreotide [^111In-pentetreotide]
IMR-32; IMR-32, 1 CPM/cell
  Total Binding (CPM ± SD), MEMBRANE: 2,373 ± 417 CPM
  Total Binding (CPM ± SD), TOTAL: 4,780 ± 928 CPM
IMR-32; IMR-32, 1 CPM/cell, after acid wash
  Total Binding (CPM ± SD), INTRACELLULAR: 2,408 ± 51 CPM
IMR-32; IMR-32, Scatchard plot analysis, read-out: Kd (apparent dissociation constant)
  Kd: 4 nM
IMR-32; [4]
  Specific Binding (CPM), INTRACELLULAR: 1.536 CPM
  Specific Binding (CPM), MEMBRANE: 2,372 CPM
  Specific Binding (CPM), TOTAL: 3,908 CPM
IMR-32; [5]
  fractions of total radioactivity incorporated into the cell: 40-75%
  time of maximal binding: 48 to 72 h
SK-R2; SK-R2 cell line
  binding associated with the plasma membrane: 95%
SK-R2; SKR-2, 1 CPM/cell
  Total Binding (CPM ± SD), MEMBRANE: 33,655 ± 2,728 CPM
  Total Binding (CPM ± SD), TOTAL: 36,261 ± 2,085 CPM
SK-R2; SKR-2, 1 CPM/cell, after acid wash
  Total Binding (CPM ± SD), INTRACELLULAR: 2,607 ± 672 CPM
SK-R2; SKR-2, Scatchard plot analysis, read-out: Kd (apparent dissociation constant)
  Kd: 1 nM
SK-R2; [6]
  Specific Binding (CPM), INTRACELLULAR: 1,792 CPM
  Specific Binding (CPM), MEMBRANE: 33,683 CPM
  Specific Binding (CPM), TOTAL: 35,475 CPM
SKNSH; 1 CPM/cell
  Total Binding (CPM ± SD), MEMBRANE: 87 ± 114 CPM
  Total Binding (CPM ± SD), TOTAL: 861 ± 30 CPM
SKNSH; 1 CPM/cell, after acid wash
  Total Binding (CPM ± SD), INTRACELLULAR: 775 ± 107 CPM
SKNSH; competitor octreotide acetate
  Specific Binding (CPM), INTRACELLULAR: 0 CPM
  Specific Binding (CPM), MEMBRANE: 0 CPM
[1]; [7]
  Treatment-related toxicity: Grade I Hb: 2
  Treatment-related toxicity: Grade I WBC: 1
  Treatment-related toxicity: Grade II WBC: 1
  Treatment-related toxicity: Grade III platelet: 2
[1]; monthly 180 mCi doses (bolus, then infusion over 72 hr, then 24 hr)
  Clinical benefits (reduced pain, weight gain, reduced malaise, etc.): 6 of the 10
[1]; monthly 180 mCi doses
  Partial radiographic responses (greater than 50% reduction in the product of perpendicular tumor diameters): 2 patients
  significant tumor necrosis: 7 of the 10
[2]
  % initiation of angiogenic growth: lowest % initiation
[2]; digital image analyzer
  vessel area: the least area of new growth
[3]; Infusion 1
  infusion ratio relative to the bolus ratio: 3 fold
[3]; Infusion 2
  infusion ratio relative to the bolus ratio: 4 fold
[3]; Infusion 3
  infusion ratio relative to the bolus ratio: 5 fold
[3]; Infusion Dose 1, after the first 24 hr infusion
  highest ratio relative to the highest ratio from the bolus injection: almost five times higher
[3]; Infusion Dose 3, gamma camera scintigraphy
  tumor foci identifiable by gamma scintigraphy: still identifiable by gamma scintigraphy thirteen days after completion of the last infusion dose
